Results reported in ChEMBL document CHEMBL3046890, “Synthesis and Herbicidal Activity of Sulfonylureas; SL-950 and Its Related Compounds” (1995).

What was measured:
Format in all cases: functional
Details in all cases: read-out: GI
Zea mays = experiment: Post emergence phyototoxic activity against Zea mays (maize) plants assessed as inhibition of plant growth at 125 g ai/ha measured 22 to 37 days after compound application under greenhouse conditions
Persicaria longiseta = experiment: Post-emergence herbicidal activity against Persicaria longiseta assessed as inhibition of weed growth at 125 g ai/ha measured 22 to 37 days after compound application under greenhouse conditions
Echinochloa crus-galli = experiment: Post emergence herbicidal activity against Echinochloa crus-galli (barnyard grass) assessed as inhibition of weed growth at 125 g ai/ha measured 22 to 37 days after compound application under greenhouse conditions
Amaranthus viridis = experiment: Post-emergence herbicidal activity against Amaranthus viridis assessed as inhibition of weed growth at 125 g ai/ha measured 22 to 37 days after compound application under greenhouse conditions
Sida spinosa = experiment: Post-emergence herbicidal activity against Sida spinosa assessed as inhibition of weed growth at 125 g ai/ha measured 22 to 37 days after compound application under greenhouse conditions
Xanthium strumarium = experiment: Post emergence herbicidal activity against Xanthium strumarium (cocklebur) assessed as inhibition of weed growth at 125 g ai/ha measured 22 to 37 days after compound application under greenhouse conditions
Triticum aestivum = experiment: Post emergence phyototoxic activity against Triticum aestivum (wheat) plants assessed as inhibition of plant growth at 125 g ai/ha measured 22 to 37 days after compound application under greenhouse conditions
Ipomoea purpurea = experiment: Post emergence herbicidal activity against Ipomoea purpurea (common morning-glory) assessed as inhibition of weed growth at 125 g ai/ha measured 22 to 37 days after compound application under greenhouse conditions

CSc1cc(SC)nc(NC(=O)NS(=O)(=O)c2ncccc2C(=O)N(C)C)n1
inhibition of growth at 125 g/ha (Zea mays): 0% | inhibition of growth at 125 g/ha (Persicaria longiseta): 0% | inhibition of growth at 125 g/ha (Echinochloa crus-galli): 0% | inhibition of growth at 125 g/ha (Amaranthus viridis): 0% | inhibition of growth at 125 g/ha (Sida spinosa): 0% | inhibition of growth at 125 g/ha (Xanthium strumarium): 0%

COc1nc(C)nc(NC(=O)NS(=O)(=O)c2ncccc2C(=O)N(C)C)n1
inhibition of growth at 125 g/ha (Triticum aestivum): 0% | inhibition of growth at 125 g/ha (Zea mays): 0% | inhibition of growth at 125 g/ha (Echinochloa crus-galli): 0% | inhibition of growth at 125 g/ha (Sida spinosa): 0% | inhibition of growth at 125 g/ha (Ipomoea purpurea): 0%

COc1nc(NC(=O)NS(=O)(=O)c2ncccc2C(=O)N(C)C)nc(OC)n1
inhibition of growth at 125 g/ha (Triticum aestivum): 0% | inhibition of growth at 125 g/ha (Zea mays): 0% | inhibition of growth at 125 g/ha (Persicaria longiseta): 0% | inhibition of growth at 125 g/ha (Echinochloa crus-galli): 0% | inhibition of growth at 125 g/ha (Amaranthus viridis): 0% | inhibition of growth at 125 g/ha (Sida spinosa): 0% | inhibition of growth at 125 g/ha (Ipomoea purpurea): 0%

CN(C)C(=O)c1cccnc1S(=O)(=O)NC(=O)Nc1nc(OC(F)F)cc(OC(F)F)n1
inhibition of growth at 125 g/ha (Triticum aestivum): 0% | inhibition of growth at 125 g/ha (Persicaria longiseta): 0% | inhibition of growth at 125 g/ha (Sida spinosa): 0% | inhibition of growth at 125 g/ha (Xanthium strumarium): 0%

COc1cc(SC)nc(NC(=O)NS(=O)(=O)c2ncccc2C(=O)N(C)C)n1
inhibition of growth at 125 g/ha (Zea mays): 0% | inhibition of growth at 125 g/ha (Amaranthus viridis): 100%

COc1cc(OC(F)F)nc(NC(=O)NS(=O)(=O)c2ncccc2C(=O)N(C)C)n1
inhibition of growth at 125 g/ha (Zea mays): 0%

COc1cc(Cl)nc(NC(=O)NS(=O)(=O)c2ncccc2C(=O)N(C)C)n1
inhibition of growth at 125 g/ha (Zea mays): 0% | inhibition of growth at 125 g/ha (Sida spinosa): 0%

CCOc1cc(OC)nc(NC(=O)NS(=O)(=O)c2ncccc2C(=O)N(C)C)n1
inhibition of growth at 125 g/ha (Zea mays): 0% | inhibition of growth at 125 g/ha (Amaranthus viridis): 100%

COc1cc(C)nc(NC(=O)NS(=O)(=O)c2ncccc2C(=O)N(C)C)n1
inhibition of growth at 125 g/ha (Zea mays): 0%

Cc1cc(C)nc(NC(=O)NS(=O)(=O)c2ncccc2C(=O)N(C)C)n1
inhibition of growth at 125 g/ha (Triticum aestivum): 0% | inhibition of growth at 125 g/ha (Zea mays): 0% | inhibition of growth at 125 g/ha (Persicaria longiseta): 0% | inhibition of growth at 125 g/ha (Echinochloa crus-galli): 0% | inhibition of growth at 125 g/ha (Sida spinosa): 0% | inhibition of growth at 125 g/ha (Ipomoea purpurea): 0%

COc1cc(OC)nc(NC(=O)NS(=O)(=O)c2ncccc2C(=O)N2CCOCC2)n1
inhibition of growth at 125 g/ha (Triticum aestivum): 0% | inhibition of growth at 125 g/ha (Zea mays): 0%

COc1cc(OC)nc(NC(=O)NS(=O)(=O)c2ncccc2C(=O)N2CCCCC2)n1
inhibition of growth at 125 g/ha (Zea mays): 0%

CCC(=O)N(CC)C(=O)c1cccnc1S(=O)(=O)NC(=O)Nc1nc(OC)cc(OC)n1
inhibition of growth at 125 g/ha (Zea mays): 0% | inhibition of growth at 125 g/ha (Amaranthus viridis): 100%

COc1cc(OC)nc(NC(=O)NS(=O)(=O)c2ncccc2C(=O)N(C)c2ccc(F)cc2F)n1
inhibition of growth at 125 g/ha (Triticum aestivum): 100% | inhibition of growth at 125 g/ha (Sida spinosa): 0%

COc1cc(OC)nc(NC(=O)NS(=O)(=O)c2ncccc2C(=O)NC2CC2)n1
inhibition of growth at 125 g/ha (Zea mays): 0% | inhibition of growth at 125 g/ha (Echinochloa crus-galli): 100%

CCCCNC(=O)c1cccnc1S(=O)(=O)NC(=O)Nc1nc(OC)cc(OC)n1
inhibition of growth at 125 g/ha (Zea mays): 0%

COC(=O)CNC(=O)c1cccnc1S(=O)(=O)NC(=O)Nc1nc(OC)cc(OC)n1
inhibition of growth at 125 g/ha (Triticum aestivum): 0% | inhibition of growth at 125 g/ha (Zea mays): 0% | inhibition of growth at 125 g/ha (Echinochloa crus-galli): 0% | inhibition of growth at 125 g/ha (Amaranthus viridis): 0% | inhibition of growth at 125 g/ha (Sida spinosa): 0% | inhibition of growth at 125 g/ha (Ipomoea purpurea): 0%

CCN(C)C(=O)c1cccnc1S(=O)(=O)NC(=O)Nc1nc(OC)cc(OC)n1
inhibition of growth at 125 g/ha (Zea mays): 0% | inhibition of growth at 125 g/ha (Echinochloa crus-galli): 100% | inhibition of growth at 125 g/ha (Xanthium strumarium): 100%

COc1cc(OC)nc(NC(=O)NS(=O)(=O)c2ncccc2C(=O)N(C)CC(F)(F)F)n1
inhibition of growth at 125 g/ha (Zea mays): 0%

COc1cc(OC)nc(NC(=O)NS(=O)(=O)c2ncccc2C(=O)N(C)OC)n1
inhibition of growth at 125 g/ha (Triticum aestivum): 100% | inhibition of growth at 125 g/ha (Zea mays): 0% | inhibition of growth at 125 g/ha (Echinochloa crus-galli): 100% | inhibition of growth at 125 g/ha (Amaranthus viridis): 100%

COC(=O)N(C)C(=O)c1cccnc1S(=O)(=O)NC(=O)Nc1nc(OC)cc(OC)n1
inhibition of growth at 125 g/ha (Zea mays): 0%

COc1cc(OC)nc(NC(=O)NS(=O)(=O)c2ncccc2C(=O)N(C)c2ccccc2)n1
inhibition of growth at 125 g/ha (Zea mays): 0%

COc1cc(OC)nc(NC(=O)NS(=O)(=O)c2ncccc2C(=O)N(C)c2ccc(Cl)cc2)n1
inhibition of growth at 125 g/ha (Zea mays): 0% | inhibition of growth at 125 g/ha (Xanthium strumarium): 100%

C=CCNC(=O)c1cccnc1S(=O)(=O)NC(=O)Nc1nc(OC)cc(OC)n1
inhibition of growth at 125 g/ha (Zea mays): 0%

C=C(C)NC(=O)c1cccnc1S(=O)(=O)NC(=O)Nc1nc(OC)cc(OC)n1
inhibition of growth at 125 g/ha (Zea mays): 0%

COc1cc(OC)nc(NC(=O)NS(=O)(=O)c2ncccc2C(=O)NCC(F)(F)F)n1
inhibition of growth at 125 g/ha (Zea mays): 0%

CCNC(=O)c1cccnc1S(=O)(=O)NC(=O)Nc1nc(OC)cc(OC)n1
inhibition of growth at 125 g/ha (Zea mays): 0%

CNC(=O)c1cccnc1S(=O)(=O)NC(=O)Nc1nc(OC)cc(OC)n1
inhibition of growth at 125 g/ha (Zea mays): 0% | inhibition of growth at 125 g/ha (Persicaria longiseta): 100% | inhibition of growth at 125 g/ha (Echinochloa crus-galli): 100% | inhibition of growth at 125 g/ha (Amaranthus viridis): 100% | inhibition of growth at 125 g/ha (Xanthium strumarium): 100%
